Experimental findings from ChEMBL document CHEMBL5214900, “Design, Synthesis, and Biological Evaluation of Membrane-Active Bakuchiol Derivatives as Effective Broad-Spectrum Antibacterial Agents” (J Med Chem, 2021) are described below.

Converted amounts (≈) assume the structure as drawn.

Data set [1] concerns Staphylococcus aureus. In words: Antibacterial activity against methicillin-resistant Staphylococcus aureus NCTC10442 assessed as inhibition of bacterial growth incubated for 24 hrs by CLSI based broth dilution method. The format is functional. On the technique in general: In broth dilution the organism is exposed to a series of concentrations in liquid medium.
Data set [2] has as its system Staphylococcus aureus. Briefly: Antibacterial activity against Staphylococcus aureus ATCC 29213 assessed as inhibition of bacterial growth incubated for 24 hrs by CLSI based broth dilution method. In kind it is functional.
Data set [3] can be described thus: Hemolytic activity in rabbit RBC measured after 1 hrs by multimode reader assay. The note with it: rabbit red blood cells (erythrocytes). In kind it is toxicity, cell-based, Oryctolagus cuniculus, Erythrocyte.
Data set [4] has as its system Staphylococcus aureus. Briefly: Antibacterial activity against methicillin-resistant Staphylococcus aureus N315 assessed as inhibition of bacterial growth incubated for 24 hrs by CLSI based broth dilution method. The format is functional.
For another data set, the system named is Escherichia coli. Briefly: Antibacterial activity against Escherichia coli ATCC 25922 assessed as inhibition of bacterial growth incubated for 24 hrs by CLSI based broth dilution method. The format is functional.

For orientation: MIC means the lowest concentration that inhibits growth of the organism. The HC50 is the concentration giving 50% haemolysis.

On to `C=C[C@@](C)(/C=C/c1ccc(OCCCBr)cc1)CCC=C(C)C`, for which the MIC is over 50 µg/mL with Staphylococcus aureus [1], over 50 µg/mL in the data set with Staphylococcus aureus [2], over 50 µg/mL in the data set on Staphylococcus aureus [4] and over 100 µg/mL with Escherichia coli. The same compound displayed a 50% haemolytic concentration (HC50) at 1 h in data set [3] of over 200 µg/mL.

Regarding `C=C[C@@](C)(/C=C/c1ccc(OCCCCN(CCCC)CCCC)cc1)CCC=C(C)C`, the MIC in the data set with Staphylococcus aureus [1] is over 50 µg/mL; with Staphylococcus aureus [2], over 50 µg/mL; in the data set on Staphylococcus aureus [4], over 50 µg/mL; in the data set with Escherichia coli, over 100 µg/mL. In data set [3], the HC50 at 1 h was over 200 µg/mL.

As for `C=C[C@@](C)(/C=C/c1ccc(OCCCN(CC)CC)cc1)CCC=C(C)C`, the MIC was 3.12 µg/mL (≈ 8.46 µM) with Staphylococcus aureus [1], 3.12 µg/mL (≈ 8.46 µM) in the data set on Staphylococcus aureus [2], 3.12 µg/mL (≈ 8.46 µM) in the data set with Staphylococcus aureus [4] and over 100 µg/mL in the data set on Escherichia coli. This compound yielded an HC50 at 1 h in data set [3] of 102 µg/mL.

For the compound `C=C[C@@](C)(/C=C/c1ccc(OCCCCN(CC)CC)cc1)CCC=C(C)C`, the MIC was 3.12 µg/mL (≈ 8.15 µM) with Staphylococcus aureus [1], 3.12 µg/mL (≈ 8.15 µM) in the data set on Staphylococcus aureus [2], 3.12 µg/mL (≈ 8.15 µM) in the data set with Staphylococcus aureus [4] and over 100 µg/mL in the data set with Escherichia coli. In data set [3], this compound gave a concentration for 50% haemolysis (HC50) at 1 h of 109 µg/mL.

With `C=C[C@@](C)(/C=C/c1ccc(OCCCCNCCSC)cc1)CCC=C(C)C`, the MIC in the data set with Staphylococcus aureus [1] is 1.56 µg/mL (≈ 3.88 µM); with Staphylococcus aureus [2], 0.78 µg/mL (≈ 1.94 µM); in the data set on Staphylococcus aureus [4] it was 0.78 µg/mL (≈ 1.94 µM); in the data set with Escherichia coli, 50 µg/mL (≈ 124 µM). Also, in data set [3], the HC50 at 1 h amounted to 32.5 µg/mL.

Regarding `C=C[C@@](C)(/C=C/c1ccc(OCCCC[N+](C)(C)C)cc1)CCC=C(C)C.[I-]`, the MIC worked out at 0.78 µg/mL in the data set on Staphylococcus aureus [1], 0.78 µg/mL with Staphylococcus aureus [2], 0.78 µg/mL in the data set with Staphylococcus aureus [4] and 6.25 µg/mL in the data set on Escherichia coli. In data set [3], this compound had an HC50 at 1 h of 34.2 µg/mL.

Turning to `C=C[C@@](C)(/C=C/c1ccc(OCCCCCCN(CC)CC)cc1)CCC=C(C)C`, the minimal inhibitory concentration (MIC) was 1.56 µg/mL (≈ 3.79 µM) with Staphylococcus aureus [1], 3.12 µg/mL (≈ 7.59 µM) with Staphylococcus aureus [2], 0.78 µg/mL (≈ 1.89 µM) in the data set on Staphylococcus aureus [4] and over 100 µg/mL with Escherichia coli. Moreover, the concentration for 50% haemolysis (HC50) at 1 h in data set [3] is 65 µg/mL.

On to `C=C[C@@](C)(/C=C/c1ccc(OCCCCN(Cc2ccccn2)Cc2ccccn2)cc1)CCC=C(C)C`, for which the MIC in the data set on Staphylococcus aureus [1] is 1.56 µg/mL (≈ 3.06 µM); in the data set on Staphylococcus aureus [2] it was 3.12 µg/mL (≈ 6.13 µM); in the data set on Staphylococcus aureus [4] it was 1.56 µg/mL (≈ 3.06 µM); with Escherichia coli, over 100 µg/mL. This compound gave an HC50 at 1 h in data set [3] of over 200 µg/mL.

Consider `C=C[C@@](C)(/C=C/c1ccc(OCCCCCCCCBr)cc1)CCC=C(C)C`, for which the MIC was over 50 µg/mL in the data set on Staphylococcus aureus [1], over 50 µg/mL in the data set with Staphylococcus aureus [2], over 50 µg/mL with Staphylococcus aureus [4] and over 100 µg/mL in the data set on Escherichia coli. Moreover, the HC50 at 1 h in data set [3] is over 200 µg/mL.

For the compound `C=C[C@@](C)(/C=C/c1ccc(OCCCCN2CCN(C)CC2)cc1)CCC=C(C)C`, the MIC was 3.12 µg/mL (≈ 7.61 µM) in the data set on Staphylococcus aureus [1], 1.56 µg/mL (≈ 3.8 µM) with Staphylococcus aureus [2], 3.12 µg/mL (≈ 7.61 µM) with Staphylococcus aureus [4] and over 100 µg/mL in the data set with Escherichia coli. Further, the HC50 at 1 h in data set [3] worked out at 104 µg/mL.

For `C=C[C@@](C)(/C=C/c1ccc(OCCCCCCBr)cc1)CCC=C(C)C`, the MIC in the data set with Staphylococcus aureus [1] is over 50 µg/mL; with Staphylococcus aureus [2] it was over 50 µg/mL; in the data set on Staphylococcus aureus [4], over 50 µg/mL; in the data set on Escherichia coli, over 100 µg/mL. In addition, in data set [3], the HC50 at 1 h is over 200 µg/mL.

Regarding `C=C[C@@](C)(/C=C/c1ccc(OCCCN(C)C)cc1)CCC=C(C)C`, the MIC was 6.25 µg/mL (≈ 18.3 µM) with Staphylococcus aureus [1], 6.25 µg/mL (≈ 18.3 µM) in the data set on Staphylococcus aureus [2], 6.25 µg/mL (≈ 18.3 µM) in the data set on Staphylococcus aureus [4] and over 100 µg/mL in the data set with Escherichia coli. The HC50 at 1 h in data set [3] is 88.5 µg/mL.

For the compound `C=C[C@@](C)(/C=C/c1ccc(OCCCCCCCCCCBr)cc1)CCC=C(C)C`, the MIC with Staphylococcus aureus [1] was over 50 µg/mL; with Staphylococcus aureus [2] it was over 50 µg/mL; in the data set with Staphylococcus aureus [4], over 50 µg/mL; in the data set with Escherichia coli it was over 100 µg/mL. For the same compound, the HC50 at 1 h in data set [3] is over 200 µg/mL.

`C=C[C@@](C)(/C=C/c1ccc(OCCCCNCCCCCCCCCC)cc1)CCC=C(C)C`: the MIC was 50 µg/mL (≈ 107 µM) in the data set with Staphylococcus aureus [1], 50 µg/mL (≈ 107 µM) in the data set with Staphylococcus aureus [2], 12.5 µg/mL (≈ 26.7 µM) in the data set on Staphylococcus aureus [4] and over 100 µg/mL in the data set with Escherichia coli. The HC50 at 1 h in data set [3] was over 200 µg/mL.

In the case of `C=C[C@@](C)(/C=C/c1ccc(OCCCCN2CCCC2)cc1)CCC=C(C)C`, the MIC with Staphylococcus aureus [1] was 1.56 µg/mL (≈ 4.09 µM); in the data set with Staphylococcus aureus [2], 1.56 µg/mL (≈ 4.09 µM); with Staphylococcus aureus [4], 1.56 µg/mL (≈ 4.09 µM); in the data set on Escherichia coli it was over 100 µg/mL. In data set [3], the 50% haemolytic concentration (HC50) at 1 h was determined as 58.2 µg/mL.
